We go through 11 compounds from patent US20230304064A1, “AUTOMATED, DIGITAL DISPENSING PLATFORM FOR MICRODILUTION ANTIMICROBIAL SUSCEPTIBILITY TESTING” (priority 2016, published 2023).

≈ marks a conversion by molar mass, not a printed value. Where two headings read alike, the source gives them in different places. Some results are limits rather than exact numbers.

For series [1] the following is noted: in vivo; cited from earlier work.
Series [2] deals with carbapenem-resistant Escherichia coli clinical isolates (blaKPC). The experiment in a line: DDM (digital dispensing method) MIC testing of CRE isolates. To be noted: for MIC: Escherichia coli, read-out: DDM modal MICs. It is filed as cell-based. Here is the method:
(§1) Bacterial strains: The 10 de-identified CRE clinical isolates used in the study were collected at our institution under Institutional Review Board-approved protocols and were sequenced through the carbapenem-resistant Enterobacteriaceae genome initiative at the Broad Institute (Cambridge, MA). All contained a Klebsiella pneumoniae carbapenemase (blaKPC) gene and were colony-purified, minimally passaged, and stored at -80° C. prior to use in this study.
(§2) After incubation, bacterial growth was quantified by measurement of OD600 using an Epoch (BioTek, Winooski, VT) or Spark 10 M microplate reader (Tecan, Morrisville, NC). An OD600 reading of 0.08 or greater (approximately twice typical background readings in wells containing broth alone) was considered indicative of bacterial growth (as also appreciable by visual assessment).
(§3) Precision and accuracy. […] Modal DDM MICs were calculated by taking the mode of all DDM MIC measurements obtained for a given antibiotic-strain combination, inclusive of initial MIC titrations and single-antibiotic rows/columns in synergy arrays (Table 5).

Series [3] has as its system carbapenem-resistant Klebsiella pneumoniae clinical isolates (blaKPC). The description is as above. The series is classed as cell-based. To be noted: for MIC: Klebsiella pneumoniae, read-out: DDM modal MICs. As to the method: as §1, §2, §3
The test system of series [4] is E. coli ATCC 25922. To be noted: CLSI quality control range; cited from earlier work.
The subject of series [5] is P. mirabilis ATCC 702. Put plainly: MIC testing by broth microdilution and D300 digital dispensing (precision study). To be noted: Proteus mirabilis, ATCC702, read-out: reference MIC. In general terms: In broth dilution the organism is exposed to a series of concentrations in liquid medium.
Series [6] concerns E. coli ATCC 25922. The description is as above. To be noted: Escherichia coli, ATCC25922, read-out: reference MIC.
In series [7] the test system is eighty de-identified Enterobacteriaceae clinical isolates. The experiment in a line: organism not typed. The series is classed as cell-based. To be noted: eighty clinical isolates; reference microdilution; CLSI criteria, EUCAST for colistin. Here is the method:
K. pneumonia BIDMC12A is a previously described, carbapenem resistant clinical isolate (14) expressing a KPC-3 carbapenemase. The eighty de-identified Enterobacteriaceae clinical isolates (Table 1) used for verification studies were collected at our institution under IRB-approved protocols. All strains were minimally passaged and stored at -80° C. prior to use in this study.
Verification study: Digital dispensing and reference method testing were performed in parallel using the same inoculum preparation. Microdilution reference panels were pre-prepared and stored at -80° C. until use (less than 2 weeks). D300 test method panels were prepared fresh each day of use.
Accuracy was evaluated using established guidelines (16, 17). The MIC determined by the digital dispensing method was compared with the MIC determined by the broth microdilution reference method. Essential agreement, overall essential agreement, and categorical agreement were evaluated as described in the precision study.

Series [8] concerns E. coli ATCC 25922. The experiment in a line: Microscopy-based AST (MAST): cell morphology at the MIC. To be noted: MAST, 2-hour incubation.
The subject of series [9] is S. aureus. Put plainly: Automated microscopy cell counting at inhibitory and sub-inhibitory antibiotic concentrations. To be noted: 4 hours. The series is classed as cell-based, Staphylococcus aureus. As to the method: We performed preliminary automated imaging experiments on the Cell Observer microscope (Zeiss, Oberkochen, Germany) (37° C., 640x magnification, DIC). For these experiments, we utilized E. coli ATCC 25922 and S. aureus ATCC 25923 (FIG. 5), prototypical Gram-negative and Gram-positive pathogens. […] Therefore, we conducted automated imaging of the center of 20 wells using 20-50 z-slices of approximately 1 µm thickness. Each image represented approximately 43,500 µm^2. After collapsing z-slices into a single image per well, cells were readily detectable and distributed evenly throughout the field at a density of 10-30 cells per 1000 µm^2 in all wells evaluated.
As proof of concept and preliminary data for image analysis-based direct cell counting, we utilized a machine learning algorithm (Trainable Weka as contained within the Fiji implementation of ImageJ) (Schindelin et al., Nature Methods 9:676-682 (2012)). A training set of 200 manually segmented S. aureus cells was used to establish a model for cell detection. This model accepts raw image data as input (FIG. 7A), classifies each pixel of an image as containing “cells” or “background” resulting in a segmented image (FIG. 7B). The segmented image is then converted to a black and white binary format. A watershed algorithm refines the segmentation by defining borders where two or more cells are in contact with one another and prevents later erroneous single counting of these otherwise fused objects (FIG. 7C). The particle analysis function of ImageJ is then used to identify particles >0.25 µm^2 as individual bacteria (FIG. 7D). Identified bacteria are subsequently counted and their aggregate surface area calculated.
Using our cell counting model, we compared images of S. aureus grown on inhibitory and sub-inhibitory concentrations of antibiotics. […] At the same time point we observed that E. coli cells in wells with sub-inhibitory concentrations of antimicrobial formed large microcolonies, making analysis of individual cells difficult. In cases where individual cells could not be segmented, a machine learning algorithm similar to that outlined in (d) reliably quantifies relative cell coverage in each field.

As for `CN(C)c1cc(NC(=O)CNC(C)(C)C)c(O)c2c1C[C@H]1C[C@H]3[C@H](N(C)C)C(O)=C(C(N)=O)C(=O)[C@@]3(O)C(O)=C1C2=O` [tigecycline], in series [1], the side effects result is “significant rates of nausea and vomiting”; the urinary excretion result is “limited urinary excretion”.
As for `C[C@@H]1O[C@@H]1P(=O)(O)O` [FOF, fosfomycin], the MIC in [2] (BIDMC 6, ECO, KPC type 2) is 0.5 µg/mL; in series [2] (BIDMC 9, ECO, KPC type 2) it was 0.5 µg/mL; in series [2] (BIDMC 15, ECO, KPC type 2), 0.5 µg/mL; in series [2] (BIDMC 17A, ECO, KPC type 2) it was 0.5 µg/mL; in [2] (BIDMC 20A, ECO, KPC type 3) it was 1 µg/mL; in [3] (BIDMC 4, KPN, KPC type 3), 128 µg/mL. Besides, the MIC was determined as 8 µg/mL in series [3] (BIDMC 5, KPN, KPC type 3); 64 µg/mL in [3] (BIDMC 10, KPN, KPC type 3); 8 µg/mL in [3] (BIDMC 12A, KPN, KPC type 3); 4 µg/mL in series [3] (BIDMC 18A, KPN, KPC type 2).
Turning to `Cc1nnc(SCC2=C(C(=O)O)N3C(=O)[C@@H](NC(=O)Cn4cnnn4)[C@H]3SC2)s1` [Cefazolin (CFZ), Cefazolin], in series [4], the “quality control range (MIC)” value is 1 to 4 µg/mL. Moreover, the MIC in [5] turned out to be 4 µg/mL (≈ 8.8 µM); in [6] it was 2 µg/mL (≈ 4.4 µM).
On to `CN(C)[C@@H]1C(O)=C(C(N)=O)C(=O)[C@@]2(O)C(O)=C3C(=O)c4c(O)cccc4[C@@](C)(O)[C@H]3C[C@@H]12` [Tetracycline (TET), Tetracycline], for which, in series [7], the “Non-susceptible strains (%)” value was found to be 42.5% and the Non-susceptible strains n is 34.
Take `O=C(N[C@H](CO)[C@H](O)c1ccc([N+](=O)[O-])cc1)C(Cl)Cl` [CHL, chloramphenicol]: the MIC in series [2] (BIDMC 6, ECO, KPC type 2) was 8 µg/mL; in series [2] (BIDMC 9, ECO, KPC type 2) it was 8 µg/mL; in series [2] (BIDMC 15, ECO, KPC type 2), 8 µg/mL; in series [2] (BIDMC 17A, ECO, KPC type 2), 8 µg/mL; in series [2] (BIDMC 20A, ECO, KPC type 3) it was 16 µg/mL; in [3] (BIDMC 10, KPN, KPC type 3), over 64 µg/mL. For the same compound, the MIC in series [3] (BIDMC 12A, KPN, KPC type 3) came out at 64 µg/mL.
Regarding `O=C(O)c1cn(C2CC2)c2cc(N3CCNCC3)c(F)cc2c1=O` [Ciprofloxacin (CIP), Ciprofloxacin], the “cell morphology at the MIC” value in series [8] is listed as “elongated cells that failed to divide”.
As to `CN(C)c1ccc(O)c2c1C[C@H]1C[C@H]3[C@H](N(C)C)C(O)=C(C(N)=O)C(=O)[C@@]3(O)C(O)=C1C2=O` [MIN, minocycline], the MIC in series [2] (BIDMC 6, ECO, KPC type 2) is 1 µg/mL; in series [2] (BIDMC 9, ECO, KPC type 2), 1 µg/mL; in [2] (BIDMC 15, ECO, KPC type 2), 1 µg/mL; in series [2] (BIDMC 17A, ECO, KPC type 2), 1 µg/mL; in series [2] (BIDMC 20A, ECO, KPC type 3) it was 4 µg/mL; in [3] (BIDMC 4, KPN, KPC type 3), 8 µg/mL. Besides, the MIC in series [3] (BIDMC 5, KPN, KPC type 3) came out at 16 µg/mL; in [3] (BIDMC 10, KPN, KPC type 3), 4 µg/mL; in series [3] (BIDMC 12A, KPN, KPC type 3) it was 4 µg/mL; in series [3] (BIDMC 18A, KPN, KPC type 2), 2 µg/mL. In series [1], the serum concentrations result is on record as “higher serum concentrations than tigecycline”. The side effects result in series [1] is “generally favorable side-effect profile”.
In the case of `CO[C@H]1/C=C/O[C@@]2(C)Oc3c(C)c(O)c4c(O)c(c(/C=N/N5CCN(C)CC5)c(O)c4c3C2=O)NC(=O)/C(C)=C\C=C\[C@H](C)[C@H](O)[C@@H](C)[C@@H](O)[C@@H](C)[C@H](OC(C)=O)[C@@H]1C` [RIF, rifampin], the MIC in series [2] (BIDMC 6, ECO, KPC type 2) worked out at 16 µg/mL; in series [2] (BIDMC 9, ECO, KPC type 2) it was 16 µg/mL; in [2] (BIDMC 15, ECO, KPC type 2), 32 µg/mL; in series [2] (BIDMC 17A, ECO, KPC type 2) it was 32 µg/mL; in series [2] (BIDMC 20A, ECO, KPC type 3), 16 µg/mL; in [3] (BIDMC 4, KPN, KPC type 3), 32 µg/mL. Besides, the MIC in series [3] (BIDMC 5, KPN, KPC type 3) stood at 32 µg/mL; in [3] (BIDMC 10, KPN, KPC type 3), 32 µg/mL; in series [3] (BIDMC 12A, KPN, KPC type 3) it was 32 µg/mL; in series [3] (BIDMC 18A, KPN, KPC type 2), 16 µg/mL.
As to `CC1(C)S[C@@H]2[C@H](NC(=O)[C@H](N)c3ccccc3)C(=O)N2[C@H]1C(=O)O` [Ampicillin (AMP), Ampicillin], in series [7], the “Non-susceptible strains (%)” value was determined as 81.3% and the Non-susceptible strains n was determined as 65. Besides, in series [9] (0.5 × the MIC), the “area occupied by cells” value was found to be 555 µm^2 and the cells detected came out at 242 cells. Moreover, the “reduction of cell numbers at the MIC vs 0.5 × the MIC” value in series [9] worked out at 5 fold. Further, in series [9] (at the MIC), the “area occupied by cells” value amounted to 47 µm^2 and the cells detected amounted to 51 cells.
As for `C[C@H]1COc2c(N3CCN(C)CC3)c(F)cc3c(=O)c(C(=O)O)cn1c23` [LVX, levofloxacin], the MIC in [2] (BIDMC 6, ECO, KPC type 2) was 16 µg/mL; in series [2] (BIDMC 9, ECO, KPC type 2), 16 µg/mL; in series [2] (BIDMC 15, ECO, KPC type 2), 32 µg/mL; in series [2] (BIDMC 17A, ECO, KPC type 2) it was 16 µg/mL; in series [2] (BIDMC 20A, ECO, KPC type 3), 32 µg/mL; in [3] (BIDMC 4, KPN, KPC type 3), 128 µg/mL. The MIC is over 64 µg/mL in series [3] (BIDMC 5, KPN, KPC type 3); 16 µg/mL in series [3] (BIDMC 10, KPN, KPC type 3); 32 µg/mL in [3] (BIDMC 12A, KPN, KPC type 3); 64 µg/mL in series [3] (BIDMC 18A, KPN, KPC type 2).
Turning to Gentamicin [Gentamicin (GEN)], the “Non-susceptible strains (%)” value in [7] is given as 31.3%. Moreover, in series [7], the Non-susceptible strains n is recorded as 25. Further, the “DDM modal MICs” value in series [2] (BIDMC 6, ECO, KPC type 2) was over 32 mg/L; in series [2] (BIDMC 9, ECO, KPC type 2) it was over 32 mg/L; in series [2] (BIDMC 15, ECO, KPC type 2), 64 mg/L; in [2] (BIDMC 17A, ECO, KPC type 2), over 32 mg/L; in series [2] (BIDMC 20A, ECO, KPC type 3), 0.5 mg/L; in series [3] (BIDMC 4, KPN, KPC type 3), 32 mg/L. Also, the “DDM modal MICs” value in series [3] (BIDMC 5, KPN, KPC type 3) came out at 32 mg/L; in series [3] (BIDMC 10, KPN, KPC type 3), 32 mg/L; in series [3] (BIDMC 12A, KPN, KPC type 3) it was 1 mg/L; in series [3] (BIDMC 18A, KPN, KPC type 2), 64 mg/L. In series [8], the “cell morphology at the MIC” value is on record as “blocked cell growth, but did not appreciably alter morphology”.
